The structures appear in SMILES notation. Entries after “also recorded” stand apart in the source; their conditions may differ.

Consider four compounds from patent US20100279935A1, “COMPOSITIONS FOR INDUCING LABOR AND ASSOCIATED METHODS” (priority 2007, published 2010).

Assay type in all cases: cell-based, human
The subject of test [1] is gap junction communication in hTERT cells. Description: Lucifer yellow dye migration (scrape loading) assay. How it is done: Lucifer yellow scrape loading assays were performed in accordance with the procedures of El-Fouly et al^17. Cells were grown to confluency in […] cell culture dishes, washed with warm phosphate buffered saline (PBS) and treated with 2 mL of pre-warmed 0.05% lucifer yellow in PBS solution. The cells were then scraped by drawing a scalpel across the plate. After two minutes at room temperature the plates were washed three times with prewarmed PBS and returned to normal medium. The plates were then photographed at 10 minutes after scraping using a digital camera through a Zeiss Axiovert 40CFL Microscope at a 100× and 200× magnification. Each treatment condition was repeated three times to ensure reproducibility.

The subject of test [2] is connexin 43 mRNA in hTERT cells. The test can be described thus: Quantitative PCR of Cx43 mRNA. The following applies: for effect of inhibitor on I-MEL-induced Cx43 expression: co-treatment with I-MEL (FIG. 3C). The method, then:
(§1) Telomerase immortalized myometrial cells (hTert) were maintained in DMEM/F12 (Mediatech) medium with 10% FBS (Hyclone) with penicillin/streptomycin and gentamycin at 37° C. and 5% CO2. Cells were trypsinized at 90% confluency and plated in T175 cell culture flasks at a 1:5 dilution or 6 well plates at 20,000 cells per well. For pharmacological experiments cells were treated with iodo-melatonin (Tocris; USA), oxytocin (Sigma-Aldrich; USA) or cotreated as described in the Results. Pharmacological inhibitors, 4-phenyl-2-propionamidotetralin (4P-PDOT), a MT2R specific antagonist, the general PKC inhibitor C1, and the phospholipase C inhibitor, U73122 (all from Tocris) were applied as a pretreatment 1 hr prior to application of IMEL or OT. After treatment the cells were trypsinized, pelleted, washed in phosphate-buffered saline, and frozen at −20° C. until further analysis.
Cellular total RNA was extracted with the RNEasy® kit (QIAGEN; Valencia, Calif., USA) according to the manufacturer's protocol. The RNA concentration was measured with the Nanodrop® photometer and then reverse transcribed to cDNA by means of the iScript® reverse transcription system (Bio-Rad Laboratories; USA). Quantitative real-time PCR was performed on a Bio-Rad iCycler® using iQ SYBR Green Supermix® (Bio-Rad), together with 1 μl of sense and antisense primers ([…]) of the transcript of interest and 2 μl of template cDNA. The following thermal cycling parameters were used: initial heat activation of the DNA-polymerase was performed at 95° C. for 5 min. Thereafter 40 cycles at 95° C. (15 sec), 58° C. (30 sec), and 72° C. (30 sec) were run. After thermocycling the iCycler performs an automatic melting curve, which entails cooling to 55° C. for 10 sec and then increasing temperatures in 0.2° C. increments up to 90° C. This controls for primer-dimer formation and other nonspecific effects. Quantification of the data was achieved by the Bio-Rad iCycler software using a standard curve from a primer-specific dilution series for the PCR product. Data were normalized against expression of the housekeeping gene glyceraldehyde-3-phosphate dehydrogenase (GAPDH). The primer sequences used for Cx43, and GAPDH quantification are as follows: […]

The test system of test [3] is myosin light chain phosphorylation (Ser19) in hTERT cells. The test can be described thus: Western blot for phosphorylated myosin light chain at Ser19. The method, then:
as §1
For in vitro investigations cultured hTERT cells were collected by trypsinization and gentle scraping. Cells were suspended in PBS and pelleted by centrifugation. Protein extraction was performed according to the method of Shearman and colleagues^15. Following electrophoretic separation on a 10% SDS-polyacrylamide gel, proteins were semi-dry blotted in buffer onto a Whatman PROTRAN Nitrocellulose membrane (Whatman; Germany). Molecular size markers (Amersham) were included. The membrane was incubated for 60 min at 20° C. in blocking buffer containing 5% milk powder before overnight incubation at 4° C. with anti-OTR, anti-MT2R (Santa Cruz Biotechnology), anti-Cx43 antiserum (Millipore) or anti-actin (Sigma) at a dilution of 1:1000 in blocking buffer. Following washing in buffer (20 mM Tris, pH 7.6+[…] NaCl+0.05% Tween-20), the membrane was incubated at 20° C. for 1 h with a peroxidase-conjugated affinity purified goat anti-rabbit immunoglobulin (Sigma) in a 1:2000 dilution. Chemiluminescent signals were then detected with the Pierce ECL Western Blotting Substrate (Pierce; USA) using CL-X Posure film (Pierce). Western blotting for phospho-myosin light chain kinase (Ser19) (Millipore) was performed with the following exceptions. Membranes were blocked with a 5% BSA/TBS solution for one hour. The primary antibody was diluted in TBS at a 1:500 dilution at 4° C. overnight with shaking. The goat anti-rabbit immunoglobulin was diluted 1:2000 in a 5% milk/TBST solution. Densitometric analysis was performed using AIS Image Analysis software (Ontario, Canada) of images acquired with a digital camera. Criterion for assessment of samples as immunonegative was the absence of a band after 1 hr of exposure. Western blots were repeated a minimum of three times to insure reproducibility.
In general terms: In western blotting, separated proteins are transferred to a membrane and probed.

Test [4] deals with hTERT myometrial smooth muscle cells. Description: Myometrial cell contractility assay (collagen disk retraction). Particulars: for effect of inhibitor on contractility of cells treated with OT, I-MEL or both: pretreatment 1 hr, 4P-PDOT 10 nM, C1 10 μM, U73122 concentration not given. The method, then: as §1
Myometrial cell contractility was assayed using a collagen disk retraction assay as described by Devost and Zingg^16 plating 10,000 hTERT cells per well. Samples were treated as described in the Results and each treatment was performed in triplicate. Myometrial cell contractility was quantified by capturing images of the fixed collagen disks with a digital camera and analyzing for total area using AIS Image Analysis Software (Ontario, Canada). The results were normalized to the cell-free control sample areas and expressed as a percentage of untreated control area.

Test [5] concerns connexin 43 protein in hTERT cells. Description: Western blot of Cx43 protein. The following applies: I-MEL-treated hTERT cells (FIG. 3B). How it is done: as §1
For in vitro investigations cultured hTERT cells were collected by trypsinization and gentle scraping. Cells were suspended in PBS and pelleted by centrifugation. Protein extraction was performed according to the method of Shearman and colleagues^15. […] Chemiluminescent signals were then detected with the Pierce ECL Western Blotting Substrate (Pierce; USA) using CL-X Posure film (Pierce). […]

In the case of `CCC(=O)NC1Cc2ccccc2C(c2ccccc2)C1` (centres unmarked) [4P-PDOT, 4-phenyl-2-propionamidotetralin], the “effect of inhibitor pretreatment on I-MEL-increased dye spread” value in test [1] (10 nM 4P-PDOT or 10 μM C1 before I-MEL) is reported as “blocked”. Besides, in test [1] (4P-PDOT or C1 alone, data not shown), the “dye migration, inhibitor alone” value is given as “dye migration comparable to control levels”. Besides, the “effect of inhibitor on I-MEL-induced Cx43 expression” value in test [2] was “abolished the effect of I-MEL on Cx43 expression”. Moreover, the “effect of inhibitor pretreatment on I-MEL-induced myosin light chain phosphorylation” value in test [3] (10 nM 4P-PDOT or 10 μM C1 pretreatment) was “abolished”. Further, the “effect of inhibitor on contractility of cells treated with OT, I-MEL or both” value in test [4] is “reduced the synergistic effect of I-MEL to levels corresponding to treatment with OT alone”.

As to `COc1ccc2[nH]c(I)c(CCNC(C)=O)c2c1` [I-MEL, iodo-melatonin], the “cell coupling / spread of lucifer yellow dye” value in test [1] (1 nM I-MEL pretreated hTERT cells, 10 minutes after scrape loading) is reported as “increased levels of cell coupling”. Also, the “Cx43 mRNA levels after 4 hrs” value in test [2] (1 nM I-MEL, 4 hrs, hTERT cells) was “significant, but transient increases; also recorded: elevated”. Moreover, in test [2] (1 nM I-MEL, 8 hrs, hTERT cells), the “Cx43 mRNA levels after 8 hrs” value is given as “returned to untreated levels”. Further, the Cx43 protein levels entry in test [5] is reported as “upregulation of Cx43 protein levels”. Further, in test [3] (1 nM I-MEL with OT, hTERT cells (FIG. 2D)), the “effect of I-MEL on OT-induced myosin light chain phosphorylation” value is reported as “increased dramatically”. For the same compound, the “myosin light chain phosphorylation, I-MEL treatment alone” value in test [3] (1 nM I-MEL, hTERT cells (FIG. 2D)) is on record as “modest increases in myosin light chain phosphorylation”. In test [4] (co-treatment 1 nM I-MEL and 1 nM OT, hTERT cells), the “increase in contractility compared to treatment with OT alone” value is listed as “two-fold”. Besides, the “contractility by I-MEL alone” value in test [4] (hTERT cells, I-MEL without OT) was “modest increases in hTERT contractility”. Also, in test [4] (hTERT cells, OT co-treated with I-MEL (FIG. 2A)), the “effect of I-MEL on OT-induced contractility and sensitivity to OT” value was “increase OT-induced contractility in a dose dependent manner”.

As for `CC[C@H](C)[C@@H]1NC(=O)[C@H](Cc2ccc(O)cc2)NC(=O)[C@@H](N)CSSC[C@@H](C(=O)N2CCC[C@H]2C(=O)N[C@@H](CC(C)C)C(=O)NCC(N)=O)NC(=O)[C@H](CC(N)=O)NC(=O)[C@H](CCC(N)=O)NC1=O` [OT, oxytocin], the “myosin light chain phosphorylation, OT treatment” value in test [3] (OT, hTERT cells (FIG. 2D)) was “increases”.

Regarding `COc1ccc2c(c1)CC[C@@H]1[C@@H]2CC[C@]2(C)[C@@H](NCCCCCCN3C(=O)C=CC3=O)CC[C@@H]12` [U73122], the “effect of inhibitor on I-MEL-induced Cx43 expression” value in test [2] is “abolished the effect of I-MEL on Cx43 expression”. In test [4], the “effect of inhibitor on contractility of cells treated with OT, I-MEL or both” value was “completely abolished contractility”.
